# Measured values as given in patent publication US8653110B2, “Active compound combination comprising azadirachtin and a substituted enaminocarbonyl compound” (Bayer CropScience AG, priority 2010, dated 2014).
# What was measured:
# Cyclocephala immaculata = test: Watering test with beetle larvae (Example 2); format: in vivo; conditions: for Effect on day 1 in % / Effect on day 4 in % / Effect on day 7 in % / Effect on day 14 in %: L3 larvae, watering, (I-1) 600, azadirachtin 60, (I-1)+azadirachtin 600+60, trichlorfon 4529 g of active compound/ha
# From the text: Beetle larvae (grubs) are important lawn pests. On the one hand, they feed on grass roots, damaging them directly, on the other hand they are a favoured food for birds which, searching for grubs, destroy the turf. For treatment against grubs, infested lawns are usually watered with insecticidal compositions. This type of treatment is emulated in the laboratory by Example 2.
# To prepare a suitable active compound preparation, a commercial formulation of active compound or active compound combination is mixed with water until the desired concentration is reached. Pots with soil substrate were watered with the following active compound preparations: • 1. untreated • 2. compound (I-1) as SL 200, 600 g of active compound/ha • 3. azadirachtin, 60 g of active compound/ha • 4. compound (I-1) as SL 200+azadirachtin, 600+60 g of active compound/ha • 5. positive control: trichlorfon 4529 g of active compound/ha
# L3 larvae of Cyclocephala immaculata were placed onto the pots. After 1, 4, 7, 14 days, the survival rate was determined, and this was used to calculate the efficacy of the compositions. 100% means that all grubs were killed, 0% means no activity.
# Spodoptera frugiperda = test: Fall armyworm caterpillars on maize, feeding damage (Example 8); format: in vivo; conditions: reduction of feeding damage
# Plutella xylostella = test: Diamondback moth bioassay on Savoy cabbage leaf discs (Example 9); format: in vivo
# Description: Example 9 also describes the effect of the combination according to the invention on caterpillars of diamondback moth Plutella xylostella on Savoy cabbage. The plants were grown in a greenhouse, and five plants each were treated as follows: The spray solution was prepared by mixing commercial formulations and using water to adjust to the concentration mentioned. The application rate was 1000 l/ha. • 1. untreated • 2. compound (I-1) as SL 200 (compound according to formula (I-1), 17% strength), 50 g of active compound/ha • 3. azadirachtin 30 g of active compound/ha, NeemAzal® • 4. azadirachtin 15 g of active compound/ha, NeemAzal® • 5. azadirachtin 5 g of active compound/ha, NeemAzal® • 6. compound (I-1) as SL 200+azadirachtin, 50+30 g of active compound/ha • 7. compound (I-1) as SL 200+azadirachtin, 50+15 g of active compound/ha • 8. compound (I-1) as SL 200+azadirachtin, 50+5 g of active compound/ha • 9. positive control imidacloprid 100 g of active compound/ha
# The plants were incubated under greenhouse conditions (20° C., 70% relative atmospheric humidity), the plants being placed at random. After 3 days, the first leaf samples were taken. Here, 5 leaves were picked from each plant. 10 leaf discs of a diameter of 6 cm were punched from the leaves and placed in Petri dishes covered with moistened filter paper. Once the leaf discs had been placed into the Petri dishes, 5 Plutella xylostella larvae of the L2 instar were added. The Petri dishes were placed on a tablett, covered with a dark film and kept at 20° C. in the laboratory. Evaluation was carried out on days 9, 14 and 21 after the addition of the larvae, the number of surviving animals being scored.
# What is shown is the effect of the products, which becomes evident in a reduction of the number of diamondback moths compared to the untreated control.
# Phyllotreta nigripes = test: Turnip flea beetle on cabbage (Example 10); format: in vivo; conditions: (I-1) 150, azadirachtin 30, (I-1)+azadirachtin 150+30, imidacloprid 100 g/ha
# Description: Example 10 describes the effect of the combination according to the invention on caterpillars of the turnip flea beetle Phyllotreta nigripes on cabbage. The test was carried out according to EPPO guidelines PP 1/210(1), PP 1/152 (2), PP 1/181 (3) and PP 1/135 with 4 repetitions of in each case 10 plants. The plants were treated as follows: • 1. untreated • 2. compound (I-1) as SL 200 (compound according to formula (I-1), 17% strength), 150 g of active compound/ha • 3. azadirachtin 30 g of active compound/ha, NeemAzal® • 4. compound (I-1) as SL 200+azadirachtin, 150+30 g of active compound/ha • 5. positive control imidacloprid 100 g of active compound/ha
# The spray solution was prepared by mixing commercial formulations and using water to adjust to the concentration mentioned. The application rate was 1000 l/ha. 2 applications were carried out at intervals of 14 days. The number of live caterpillars on days 7 to 32 after the first application was scored. What is shown is the effect of the products, which becomes evident in a reduction of the number of caterpillars compared to the untreated control.
# Diabrotica balteata = Diabrotica balteata test, larvae in soil (Example 4); format: in vivo; conditions: soil treatment, maize, (I-1) 60 g of ai/ha, Azadirachta indica 20%, combination 60 g + 20%
# Description: • Solvent: 4 parts by weight of acetone • Emulsifier: 1 part by weight of alkylaryl polyglycol ether
# The active compound preparation was mixed with soil. […] The treated soil is filled into pots, and 5 maize corns are placed into each pot. 3 days after sowing, larvae of the corn rootworm (Diabrotica balteata) are placed into the treated soil.
# The efficacy is calculated from the number of maize plants that have emerged.
# Phaedon cochleariae = Phaedon cochleariae larvae test (Example 3); conditions: cabbage leaves sprayed, (I-1) 120 g of ai/ha, Azadirachta indica 20%, combination 120 g + 20%
# [1] = Day 7, (I-1) 50, azadirachtin 30, (I-1)+azadirachtin 50+30, imidacloprid 100 g/ha
# [2] = Day 14, (I-1) 50, azadirachtin 30, (I-1)+azadirachtin 50+30, imidacloprid 100 g/ha
# [3] = Day 14, azadirachtin 5, (I-1)+azadirachtin 50+5 g/ha
# [4] = Day 21, (I-1) 50, azadirachtin 30, (I-1)+azadirachtin 50+30, imidacloprid 100 g/ha
# [5] = Day 21, azadirachtin 5, (I-1)+azadirachtin 50+5 g/ha
# [6] = Days 28-32, (I-1) 50, azadirachtin 30, (I-1)+azadirachtin 50+30, imidacloprid 100 g/ha
# [7] = Days 35-42, (I-1) 50, azadirachtin 30, (I-1)+azadirachtin 50+30, imidacloprid 100 g/ha
# [8] = Day 9, (I-1) 50, azadirachtin 30, (I-1)+azadirachtin 50+30, imidacloprid 100 g/ha
Structure (SMILES),Effect on day 1 in % (Cyclocephala immaculata) [%],Effect on day 4 in % (Cyclocephala immaculata) [%],Effect on day 7 in % (Cyclocephala immaculata) [%],Effect on day 14 in % (Cyclocephala immaculata) [%],Activity against Spodoptera frugiperda [%] (Spodoptera frugiperda; [1]),Activity against Spodoptera frugiperda [%] (Spodoptera frugiperda; [2]),Activity against Spodoptera frugiperda [%] (Spodoptera frugiperda; [4]),Activity against Spodoptera frugiperda [%] (Spodoptera frugiperda; [6]),Activity against Spodoptera frugiperda [%] (Spodoptera frugiperda; [7]),Activity against Plutella xylostella [%] (Plutella xylostella; [8]),Activity against Plutella xylostella [%] (Plutella xylostella; [2]),Activity against Plutella xylostella [%] (Plutella xylostella; [4]),Activity against Phyllotreta nigripes [%] (Phyllotreta nigripes; Day 7),Activity against Phyllotreta nigripes [%] (Phyllotreta nigripes; Days 14-16),Activity against Phyllotreta nigripes [%] (Phyllotreta nigripes; Days 21-25),Activity against Phyllotreta nigripes [%] (Phyllotreta nigripes; Days 28-32),further results
C/C=C(\C)C(=O)O[C@H]1C[C@@H](OC(C)=O)[C@@]2(C(=O)OC)CO[C@H]3[C@@H](O)[C@@](C)([C@]45O[C@@]4(C)[C@H]4C[C@@H]5O[C@@H]5OC=C[C@@]54O)[C@H]4[C@]1(CO[C@]4(O)C(=O)OC)[C@@H]32 [azadirachtin],0,0,0,7,0,7,53,84,80,46,72,25,29,51,35,34,"effect on grubs (Cyclocephala immaculata; entire duration of the test, azadirachtin 60 g of active compound/ha): no effect; Activity against Spodoptera frugiperda [%] (Spodoptera frugiperda; Day 7, azadirachtin 5, (I-1)+azadirachtin 50+5 g/ha): 0%; Activity against Spodoptera frugiperda [%] (Spodoptera frugiperda; [3]): 29%; Activity against Spodoptera frugiperda [%] (Spodoptera frugiperda; [5]): 61%; Activity against Spodoptera frugiperda [%] (Spodoptera frugiperda; Days 28-32, azadirachtin 5, (I-1)+azadirachtin 50+5 g/ha): 77%; Activity against Spodoptera frugiperda [%] (Spodoptera frugiperda; Days 35-42, azadirachtin 5, (I-1)+azadirachtin 50+5 g/ha): 81%; Activity against Plutella xylostella [%] (Plutella xylostella; Day 9, azadirachtin 5, (I-1)+azadirachtin 50+5 g/ha): 0%; Activity against Plutella xylostella [%] (Plutella xylostella; Day 9, azadirachtin 15, (I-1)+azadirachtin 50+15 g/ha): 18%; Activity against Plutella xylostella [%] (Plutella xylostella; [3]): 15%; Activity against Plutella xylostella [%] (Plutella xylostella; Day 14, azadirachtin 15, (I-1)+azadirachtin 50+15 g/ha): 31%; Activity against Plutella xylostella [%] (Plutella xylostella; [5]): 25%; Activity against Plutella xylostella [%] (Plutella xylostella; Day 21, azadirachtin 15, (I-1)+azadirachtin 50+15 g/ha): 38%"
"O=C1C=C(N(Cc2ccc(Cl)nc2)CC(F)F)CO1 [(I-1), 4-{[(6-chloropyrid-3-yl)methyl](2,2-difluoroethyl)amino}furan-2(5H)-one]",0,28,0,29,0,0,0,0,0,0,21,34,0,9.5,7.4,2.8,Kill in % after 5d (found) (Diabrotica balteata): 75%; Kill in % after 1d (found) (Phaedon cochleariae): 15%
O=[N+]([O-])NC1=NCCN1Cc1ccc(Cl)nc1 [imidacloprid],,,,,24,57,14,12,10,43,36,41,52,51,49,43,
